Test results: ChEMBL document CHEMBL4725363 (J Med Chem, 2020)
Active and inactive are the calls of the source. No cut-off for these calls is given here.

Assays:
Rattus norvegicus [1] = assay: Suppression of hypertension pressure in Wistar rat model of pulmonary hypertension assessed as reduction in MCT-induced wall thickness of small pulmonary arteries at 20 mg/kg/day, po for 3 weeks; assay type: functional, organism-based
[2] = AUC (0 to infinity) in Sprague-Dawley rat at 2.5 mg/kg, iv after 24 hrs by LC-MS/MS analysis; assay type: ADME, organism-based; design: route intravenous, time 24 hrs, dose 2.5 mg/kg; settings: in vivo
Cytochrome P450 2D6 = Cytochrome P450 2D6 (Homo sapiens, UniProt P10635); assay: Inhibition of CYP2D6 (unknown origin); assay type: ADME
[3] = AUC (0 to t) in Sprague-Dawley rat at 2.5 mg/kg, iv after 24 hrs by LC-MS/MS analysis; assay type: ADME, organism-based; design: route intravenous, dose 2.5 mg/kg, time 24 hrs; settings: in vivo
Cytochrome P450 1A2 = target: T1, Cytochrome P450 1A2 (Homo sapiens, UniProt P05177); assay: Inhibition of CYP1A2 (unknown origin); assay type: ADME
T1 sequence (P05177 whole entry): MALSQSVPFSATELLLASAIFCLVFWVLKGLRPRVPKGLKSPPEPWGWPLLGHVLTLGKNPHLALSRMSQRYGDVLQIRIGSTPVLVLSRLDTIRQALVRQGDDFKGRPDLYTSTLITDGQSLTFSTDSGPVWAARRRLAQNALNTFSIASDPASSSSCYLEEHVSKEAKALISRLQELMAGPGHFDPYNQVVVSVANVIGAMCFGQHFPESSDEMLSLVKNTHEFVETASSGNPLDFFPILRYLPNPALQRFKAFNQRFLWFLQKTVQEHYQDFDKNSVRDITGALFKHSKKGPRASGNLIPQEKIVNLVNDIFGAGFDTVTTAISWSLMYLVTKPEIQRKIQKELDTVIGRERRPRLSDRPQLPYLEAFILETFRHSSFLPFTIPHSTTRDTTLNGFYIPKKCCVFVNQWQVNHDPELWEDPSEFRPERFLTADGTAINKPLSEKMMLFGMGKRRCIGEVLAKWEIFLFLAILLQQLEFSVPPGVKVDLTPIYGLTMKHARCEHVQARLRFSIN

[4] = target: Voltage-gated inwardly rectifying potassium channel KCNH2 (Homo sapiens, UniProt Q12809); assay: Inhibition of human ERG expressed in CHO cells by patch-clamp electrophysiology method; assay type: cell-based
Rattus norvegicus [5] = assay: Suppression of hypertension pressure in Wistar rat model of pulmonary hypertension assessed as dilation of small pulmonary vessels arteries at 20 mg/kg/day, po for 3 weeks by H and E staining based microscopy; assay type: functional, organism-based
Cytochrome P450 2B6 = target: T2, Cytochrome P450 2B6 (Homo sapiens, UniProt P20813); assay: Inhibition of CYP2B6 (unknown origin); assay type: ADME
T2 sequence (P20813 whole entry): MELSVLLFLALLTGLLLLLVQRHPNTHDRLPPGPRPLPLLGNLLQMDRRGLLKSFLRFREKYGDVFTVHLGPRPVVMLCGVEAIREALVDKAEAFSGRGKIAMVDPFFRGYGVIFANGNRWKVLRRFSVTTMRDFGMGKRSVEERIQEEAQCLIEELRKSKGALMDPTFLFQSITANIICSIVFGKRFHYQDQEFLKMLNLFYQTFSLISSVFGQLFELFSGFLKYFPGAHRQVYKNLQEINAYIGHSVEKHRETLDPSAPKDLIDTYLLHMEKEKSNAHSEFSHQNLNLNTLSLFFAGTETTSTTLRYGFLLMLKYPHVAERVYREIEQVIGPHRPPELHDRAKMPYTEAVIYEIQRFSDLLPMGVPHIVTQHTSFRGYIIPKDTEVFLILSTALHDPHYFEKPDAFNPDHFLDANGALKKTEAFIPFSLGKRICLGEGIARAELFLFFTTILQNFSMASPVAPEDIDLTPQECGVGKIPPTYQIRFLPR

[6] = AUC (0 to infinity) in Sprague-Dawley rat at 5 mg/kg, po after 24 hrs by LC-MS/MS analysis; assay type: ADME, organism-based; design: route oral, time 24 hrs, dose 5 mg/kg; settings: in vivo
[7] = Oral bioavailability in Sprague-Dawley rat at 5 mg/kg after 24 hrs by LC-MS/MS analysis; assay type: ADME, organism-based; settings: in vivo
[8] = Tmax in Sprague-Dawley rat at 5 mg/kg, po after 24 hrs by LC-MS/MS analysis; assay type: ADME, organism-based; settings: in vivo
Cytochrome P450 3A4 = Cytochrome P450 3A4 (Homo sapiens, UniProt P08684); assay: Inhibition of CYP3A4 (unknown origin); assay type: ADME
[9] = target: Dual 3',5'-cyclic-AMP and -GMP phosphodiesterase 11A (Homo sapiens, UniProt Q9HCR9); assay: Inhibition of PDE11A catalytic domain (unknown origin) using [3H]-cAMP or [3H]-[…] as substrate after 15 mins by liquid scintillation counting method
[10] = target: T3, DNA topoisomerase 1 (Homo sapiens) (UniProt P11387); assay: Inhibition of Top (unknown origin) mediated supercoiled DNA relaxation at 100 uM
T3 sequence (whole entry): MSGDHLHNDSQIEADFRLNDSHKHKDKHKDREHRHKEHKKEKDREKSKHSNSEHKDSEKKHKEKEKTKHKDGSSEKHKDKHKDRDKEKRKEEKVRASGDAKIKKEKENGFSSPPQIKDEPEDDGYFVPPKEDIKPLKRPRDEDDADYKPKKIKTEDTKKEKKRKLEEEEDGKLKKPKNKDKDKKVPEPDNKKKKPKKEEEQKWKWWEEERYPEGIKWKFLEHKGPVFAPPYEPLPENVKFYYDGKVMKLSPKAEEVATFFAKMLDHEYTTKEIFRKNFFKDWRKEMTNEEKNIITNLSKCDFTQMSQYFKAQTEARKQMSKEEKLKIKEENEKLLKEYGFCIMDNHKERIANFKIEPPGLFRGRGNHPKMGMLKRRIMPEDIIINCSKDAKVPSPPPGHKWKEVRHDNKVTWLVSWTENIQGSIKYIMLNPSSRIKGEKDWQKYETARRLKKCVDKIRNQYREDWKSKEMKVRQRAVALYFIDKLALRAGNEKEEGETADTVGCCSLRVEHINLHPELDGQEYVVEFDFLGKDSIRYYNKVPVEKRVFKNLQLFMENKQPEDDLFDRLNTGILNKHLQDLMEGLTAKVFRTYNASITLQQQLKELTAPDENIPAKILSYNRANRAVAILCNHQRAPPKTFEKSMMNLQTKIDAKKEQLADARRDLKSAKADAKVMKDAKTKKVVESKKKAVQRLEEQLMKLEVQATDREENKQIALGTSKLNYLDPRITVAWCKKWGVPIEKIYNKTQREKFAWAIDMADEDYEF

[11] = target: Cone cGMP-specific 3',5'-cyclic phosphodiesterase subunit alpha' (Homo sapiens, UniProt P51160); assay: Inhibition of human PDE6C (2-854 residues) expressed in Sf9 cells incubated for 15 mins using [3H]-cGMP as substrate by liquid scintillation counting method
[12] = MRT (0 to t) in Sprague-Dawley rat at 2.5 mg/kg, iv after 24 hrs by LC-MS/MS analysis; assay type: ADME, organism-based; settings: in vivo
[13] = Half life in Sprague-Dawley rat at 2.5 mg/kg, iv after 24 hrs by LC-MS/MS analysis; assay type: ADME, organism-based; settings: in vivo
[14] = Acute toxicity in KM mouse at 1000 to 1500 mg/kg, po administered as single dose measured every 24 hrs for 14 days relative to control; assay type: organism-based; settings: in vivo, 336 h, dose 1000-1500 mg/kg, time 14 day

Chain of Voltage-gated inwardly rectifying potassium channel KCNH2 (Q12809 whole entry): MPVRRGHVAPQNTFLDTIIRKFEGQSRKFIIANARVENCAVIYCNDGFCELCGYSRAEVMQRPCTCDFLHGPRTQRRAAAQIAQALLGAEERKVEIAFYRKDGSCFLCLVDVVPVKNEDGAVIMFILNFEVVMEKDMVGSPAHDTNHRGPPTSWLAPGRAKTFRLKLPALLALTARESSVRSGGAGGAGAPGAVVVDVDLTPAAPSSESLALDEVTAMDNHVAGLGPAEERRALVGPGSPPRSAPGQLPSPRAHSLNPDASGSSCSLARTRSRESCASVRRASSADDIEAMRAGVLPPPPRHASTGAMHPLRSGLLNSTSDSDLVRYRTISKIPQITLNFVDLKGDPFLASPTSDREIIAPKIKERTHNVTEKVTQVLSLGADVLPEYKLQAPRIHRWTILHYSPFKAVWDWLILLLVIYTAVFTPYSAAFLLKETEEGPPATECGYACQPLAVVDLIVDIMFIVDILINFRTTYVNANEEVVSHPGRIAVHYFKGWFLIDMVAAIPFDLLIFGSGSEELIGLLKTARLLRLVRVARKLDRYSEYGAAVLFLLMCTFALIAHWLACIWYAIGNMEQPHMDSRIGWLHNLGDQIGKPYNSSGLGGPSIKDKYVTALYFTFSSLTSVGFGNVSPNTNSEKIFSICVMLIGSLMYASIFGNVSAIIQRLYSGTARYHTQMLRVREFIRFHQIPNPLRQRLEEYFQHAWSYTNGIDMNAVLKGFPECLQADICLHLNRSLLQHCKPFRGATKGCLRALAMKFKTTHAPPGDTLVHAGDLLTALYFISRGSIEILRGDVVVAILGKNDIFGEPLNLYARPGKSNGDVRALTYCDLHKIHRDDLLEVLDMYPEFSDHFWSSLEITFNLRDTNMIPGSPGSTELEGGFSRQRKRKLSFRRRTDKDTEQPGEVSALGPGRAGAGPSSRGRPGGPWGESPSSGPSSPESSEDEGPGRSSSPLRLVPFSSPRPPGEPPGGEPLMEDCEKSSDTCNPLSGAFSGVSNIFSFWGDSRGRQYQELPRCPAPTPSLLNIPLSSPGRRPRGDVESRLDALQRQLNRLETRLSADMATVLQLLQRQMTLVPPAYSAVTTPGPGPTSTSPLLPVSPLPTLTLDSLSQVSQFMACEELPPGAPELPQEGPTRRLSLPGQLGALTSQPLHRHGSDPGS
Chain of Cytochrome P450 2D6 (P10635 whole entry): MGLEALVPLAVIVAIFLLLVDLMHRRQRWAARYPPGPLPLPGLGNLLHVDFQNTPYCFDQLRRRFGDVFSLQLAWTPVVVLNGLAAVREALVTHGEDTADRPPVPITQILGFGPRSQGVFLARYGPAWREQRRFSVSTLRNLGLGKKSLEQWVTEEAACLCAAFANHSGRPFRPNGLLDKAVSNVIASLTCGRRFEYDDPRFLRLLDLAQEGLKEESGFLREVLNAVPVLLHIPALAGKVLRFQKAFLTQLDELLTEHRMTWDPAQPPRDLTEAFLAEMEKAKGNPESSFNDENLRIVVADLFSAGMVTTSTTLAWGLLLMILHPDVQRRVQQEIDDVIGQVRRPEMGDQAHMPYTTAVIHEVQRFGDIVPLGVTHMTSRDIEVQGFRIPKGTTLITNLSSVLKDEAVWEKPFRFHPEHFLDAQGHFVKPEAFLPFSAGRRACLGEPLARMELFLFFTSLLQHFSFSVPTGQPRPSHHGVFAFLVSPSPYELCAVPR
Chain of Cone cGMP-specific 3',5'-cyclic phosphodiesterase subunit alpha' (P51160 whole entry, the tested form may be a part): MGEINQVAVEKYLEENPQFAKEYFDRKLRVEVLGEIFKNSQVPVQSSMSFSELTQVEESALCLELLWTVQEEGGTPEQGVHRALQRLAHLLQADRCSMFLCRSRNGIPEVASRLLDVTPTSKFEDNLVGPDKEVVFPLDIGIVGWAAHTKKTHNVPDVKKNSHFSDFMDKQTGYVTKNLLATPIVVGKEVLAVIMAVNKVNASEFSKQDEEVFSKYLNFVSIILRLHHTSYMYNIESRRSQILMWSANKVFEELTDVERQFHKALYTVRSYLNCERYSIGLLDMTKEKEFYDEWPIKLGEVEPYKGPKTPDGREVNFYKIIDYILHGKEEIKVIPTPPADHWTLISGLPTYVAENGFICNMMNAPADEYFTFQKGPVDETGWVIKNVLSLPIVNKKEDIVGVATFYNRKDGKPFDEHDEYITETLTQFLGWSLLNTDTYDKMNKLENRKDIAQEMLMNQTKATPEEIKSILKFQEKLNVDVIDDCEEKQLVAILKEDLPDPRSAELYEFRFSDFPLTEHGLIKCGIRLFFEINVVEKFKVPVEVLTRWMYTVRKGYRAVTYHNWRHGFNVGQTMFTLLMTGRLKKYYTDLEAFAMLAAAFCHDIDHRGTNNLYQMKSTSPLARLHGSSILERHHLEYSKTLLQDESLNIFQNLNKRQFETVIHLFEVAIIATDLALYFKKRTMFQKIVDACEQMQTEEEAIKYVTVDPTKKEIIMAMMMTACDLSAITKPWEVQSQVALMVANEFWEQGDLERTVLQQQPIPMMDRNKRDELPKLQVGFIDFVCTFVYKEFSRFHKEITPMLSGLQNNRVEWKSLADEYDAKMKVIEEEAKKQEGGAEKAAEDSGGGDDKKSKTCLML
Chain of Dual 3',5'-cyclic-AMP and -GMP phosphodiesterase 11A (Q9HCR9 whole entry, the tested form may be a part): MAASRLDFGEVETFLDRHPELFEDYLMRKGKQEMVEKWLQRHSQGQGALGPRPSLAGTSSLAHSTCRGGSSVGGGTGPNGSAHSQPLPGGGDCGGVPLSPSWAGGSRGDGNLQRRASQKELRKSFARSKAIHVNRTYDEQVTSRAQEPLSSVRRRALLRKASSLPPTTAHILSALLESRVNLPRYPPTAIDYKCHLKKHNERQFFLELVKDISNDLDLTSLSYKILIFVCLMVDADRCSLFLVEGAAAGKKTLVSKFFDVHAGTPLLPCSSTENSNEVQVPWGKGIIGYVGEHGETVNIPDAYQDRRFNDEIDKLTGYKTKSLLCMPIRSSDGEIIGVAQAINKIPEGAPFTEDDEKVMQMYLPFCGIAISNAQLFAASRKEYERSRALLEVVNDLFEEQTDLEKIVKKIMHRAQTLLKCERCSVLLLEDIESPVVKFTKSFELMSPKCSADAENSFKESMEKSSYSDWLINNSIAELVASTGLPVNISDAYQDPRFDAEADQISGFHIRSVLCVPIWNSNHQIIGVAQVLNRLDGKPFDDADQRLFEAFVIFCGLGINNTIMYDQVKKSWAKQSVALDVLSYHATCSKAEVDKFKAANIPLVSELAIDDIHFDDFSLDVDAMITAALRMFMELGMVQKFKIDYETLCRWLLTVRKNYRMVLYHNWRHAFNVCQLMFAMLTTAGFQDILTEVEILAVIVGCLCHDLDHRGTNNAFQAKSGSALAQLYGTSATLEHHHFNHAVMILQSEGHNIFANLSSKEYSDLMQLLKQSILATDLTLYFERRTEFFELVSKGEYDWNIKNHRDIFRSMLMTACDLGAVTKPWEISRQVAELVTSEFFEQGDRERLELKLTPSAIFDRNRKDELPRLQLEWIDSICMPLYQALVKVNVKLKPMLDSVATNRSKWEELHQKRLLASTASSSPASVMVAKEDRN
Chain of Cytochrome P450 3A4 (P08684 whole entry, the tested form may be a part): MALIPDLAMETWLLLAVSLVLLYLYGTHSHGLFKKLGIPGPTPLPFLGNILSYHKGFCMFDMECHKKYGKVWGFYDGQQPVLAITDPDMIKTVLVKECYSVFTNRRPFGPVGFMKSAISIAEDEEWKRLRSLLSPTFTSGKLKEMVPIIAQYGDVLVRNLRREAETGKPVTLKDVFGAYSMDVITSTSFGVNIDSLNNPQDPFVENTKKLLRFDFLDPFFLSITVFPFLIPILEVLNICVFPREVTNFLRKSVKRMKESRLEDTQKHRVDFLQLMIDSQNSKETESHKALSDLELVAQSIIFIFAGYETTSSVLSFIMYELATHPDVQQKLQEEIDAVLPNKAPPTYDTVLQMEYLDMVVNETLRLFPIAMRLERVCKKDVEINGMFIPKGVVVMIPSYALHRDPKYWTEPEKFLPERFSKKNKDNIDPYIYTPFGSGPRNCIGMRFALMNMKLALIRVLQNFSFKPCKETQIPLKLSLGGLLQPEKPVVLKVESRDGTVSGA

**Q.** Which Activity (Rattus norvegicus [1]) does the source give for COc1ccc2c3c([nH]c2c1)[C@@H]1N(CC3)C(=O)c2c(OC)cccc2N1C here?
**A.** The Activity was “Active”.

**Q.** What about the AUC(0-inf) [2] of the same compound?
**A.** The AUC(0-inf) was 520 ng·h/mL.

**Q.** And the IC50 (Cytochrome P450 2D6)?
**A.** The IC50 was 10 µM.

**Q.** And the AUC(0-t) at 24 h [3]?
**A.** Its AUC(0-t) at 24 h is 519 ng·h/mL.

**Q.** And the IC50 (Cytochrome P450 1A2)?
**A.** Its IC50 is 10 µM.

**Q.** And the IC50 [4]?
**A.** The IC50 was 20 µM.

**Q.** And the Activity (Rattus norvegicus [5])?
**A.** The Activity was “Active”.

**Q.** And the IC50 (Cytochrome P450 2B6)?
**A.** The IC50 was 10 µM.

**Q.** What about the AUC(0-inf) [6] of the same compound?
**A.** The AUC(0-inf) was 155 ng·h/mL.

**Q.** And the bioavailability [7]?
**A.** The bioavailability was 14%.

**Q.** What about the Tmax [8] of the same compound?
**A.** The Tmax was 49.8 min.

**Q.** And the IC50 (Cytochrome P450 3A4)?
**A.** Its IC50 is 10 µM.

**Q.** And the IC50 [9]?
**A.** Its IC50 is greater than 30 µM.

**Q.** And the inhibition [10]?
**A.** Its inhibition is “inactive”.

**Q.** And the IC50 [11]?
**A.** Its IC50 is greater than 150 µM.

**Q.** What about the MRT last at 24 h [12] of the same compound?
**A.** The MRT last at 24 h was 8.4 min.

**Q.** And the half-life [13]?
**A.** Its half-life is 13.2 min.

**Q.** What about the Activity [14] of the same compound?
**A.** The Activity was greater than 1.5 g/kg.
